In US7691887B2, “Triazole derivatives which are SMO antagonists” (Merck Sharp & Dohme Corp., priority 2007, dated 2010):
pIC50: −log10 of the molar value.

Test system: Hh pathway (Smo) in Shh-Light II cells
Assay: Shh-Light II Reporter Assay (firefly/Renilla luciferase)
Assay type: cell-based
Conditions: Mus musculus; for pIC50: 3 uM Purmorphamine stimulation, 30 hrs
Protocol: Shh-Light II Reporter Assay
Assay designed to measure firefly and Renilla luciferase, in the same well.
Prior to assay the Shh-Light II cells (ATCC Catalog No. CRL-2795) were cultured in growth media
Day −1: seed 60,000 Shh-Light II cells in assay medium 75 uL/well, in presence of DMSO/inhibitor.
Day 0: after overnight incubation at 37° C. 10% CO2 add 3 uM of Purmorphamine (Calbiochem 540220) in water.
Day 1: After 30 hrs at 37° C. 10% CO2 of incubation develop the assay, directly to cells in growth medium. • Add 75 μl of DualGlow Luciferase Reagent (Promega, E2940) • Incubate 10 min. in the dark • Read plate at Luminometer: TopCount, by PerkinElmer • Add 75 ul of DualGlow Stop & Glow • Incubate 10 min. in the dark • Read plate at Luminometer: TopCount, by PerkinElmer. • Output is the ratio between FireFly/Renilla counts Growth Media: For Growth:
DMEM: Dulbecco's Mod Eagle Medium with 0.11 G/L Pyr, with Pyridoxine. (GIBCO Cat No: 41966-029). The medium has complemented with 10% FCS (fetal bovine serum), 1% Penicillin-Streptomycin (10 mg/ml) (GIBCO, 15140-114) and 1% L-Glutamine 200 mM (100×) (GIBCO, 3042190) and 0.4 mg/ml of G418 (Roche) and 0.15 mg/ml Zeocyne (Invitrogen R-250-01). Cells cultured at 10% CO2.
DMEM: Dulbecco's Mod Eagle Medium with 0.11 G/L Pyr, with Pyridoxine. (GIBCO Cat No: 21063-045), without Phenol Red. The medium has complemented with 2% FCS (fetal bovine serum), 1% Penicillin-Streptomycin (10 mg/ml) (GIBCO, 15140-114) and 1% L-Glutamine 200mM (100×) (GIBCO, 3042190). Cells cultured at 10% CO2. DMSO 0.25%.

Structure (SMILES) | pIC50 | inhibition at 5 µM (5 μM compound) [%]
Cn1c(-c2ccccc2C(F)(F)F)nnc1C12CCC(c3noc(C(C)(F)F)n3)(CC1)CC2 [Example 1, 5-(1,1-Difluoroethyl)-3-(4-{4-methyl-5-[2-(trifluoromethyl)phenyl]-4H-1,2,4-triazol-3-yl}bicyclo[2.2.2]oct-1-yl)-1,2,4-oxadiazole] | – | 35
Cn1c(-c2ccccc2C(F)(F)F)nnc1C12CCC(c3noc(C4CC(F)(F)C4)n3)(CC1)CC2 [Example 2, 5-(3,3-Difluorocyclobutyl)-3-(4-{4-methyl-5-[2-(trifluoromethyl)phenyl]-4H-1,2,4-triazol-3-yl}bicyclo[2.2.2]oct-1-yl)-1,2,4-oxadiazole] | 5.85 | –
Cn1c(-c2ccccc2C(F)(F)F)nnc1C12CCC(c3noc(C(C)(C)F)n3)(CC1)CC2 [Example 3, 5-(1-Fluoro-1-methylethyl)-3-(4-{4-methyl-5-[2-(trifluoromethyl)phenyl]-4H-1,2,4-triazol-3-yl}bicyclo[2.2.2]oct-1-yl)-1,2,4-oxadiazole] | 5.38 | –

More lines, main results first:

pIC50 | Structure (SMILES) | inhibition at 5 µM (5 μM compound) [%]
5.03 | Cn1c(-c2ccccc2C(F)(F)F)nnc1C12CCC(c3nnc(C(C)(F)F)o3)(CC1)CC2 [Example 4, 2-(1,1-Difluoroethyl)-5-(4-{4-methyl-5-[2-(trifluoromethyl)phenyl]-4H-1,2,4-triazol-3-yl}bicyclo[2.2.2]oct-1-yl)-1,3,4-oxadiazole] | –
5.70 | Cn1c(-c2ccccc2C(F)(F)F)nnc1C12CCC(c3nnc(C4CC(F)(F)C4)o3)(CC1)CC2 [Example 5, 2-(3,3-Difluorocyclobutyl)-5-(4-{4-methyl-5-[2-(trifluoromethyl)phenyl]-4H-1,2,4-triazol-3-yl}bicyclo[2.2.2]oct-1-yl)-1,3,4-oxadiazole] | –
